From ChEMBL document CHEMBL1201861, “Genomics of Drug Sensitity in Cancer screening data, Wellcome Trust Sanger Institute”

Columns and labels:
Assay in all cases: cells
CP66-MEL = format: functional, cell-based, Homo sapiens; details: Homo sapiens, CP66-MEL
Description: SANGER: Inhibition of human CP66-MEL cell growth in a cell viability assay.

D-263MG = format: functional, cell-based, Homo sapiens; details: Homo sapiens, D-263MG
Description: SANGER: Inhibition of human D-263MG cell growth in a cell viability assay.

DU-4475 = format: functional, cell-based, Homo sapiens; details: Homo sapiens, DU-4475
Description: SANGER: Inhibition of human DU-4475 cell growth in a cell viability assay.

EM-2 = format: functional, cell-based, Homo sapiens; details: Homo sapiens, EM-2
Description: SANGER: Inhibition of human EM-2 cell growth in a cell viability assay.

GI-ME-N = format: functional, cell-based, Homo sapiens; details: Homo sapiens, GI-ME-N
Description: SANGER: Inhibition of human GI-ME-N cell growth in a cell viability assay.

HDLM-2 = format: functional, cell-based, Homo sapiens; details: Homo sapiens, HDLM-2
Description: SANGER: Inhibition of human HDLM-2 cell growth in a cell viability assay.

HuTu80 = format: functional, cell-based, Homo sapiens, HUTU-80; details: Homo sapiens, HuTu80
Description: SANGER: Inhibition of human HUTU-80 cell growth in a cell viability assay.

JVM-2 = format: functional, cell-based, Homo sapiens; details: Homo sapiens, JVM-2
Description: SANGER: Inhibition of human JVM-2 cell growth in a cell viability assay.

KARPAS-299 = format: functional, cell-based, Homo sapiens; details: Homo sapiens, KARPAS-299
Description: SANGER: Inhibition of human KARPAS-299 cell growth in a cell viability assay.

KS-1 = format: functional, cell-based, Homo sapiens; details: Homo sapiens, KS-1
Description: SANGER: Inhibition of human KS-1 cell growth in a cell viability assay.

LB2241-RCC = format: functional, cell-based, Homo sapiens; details: Homo sapiens, LB2241-RCC
Description: SANGER: Inhibition of human LB2241-RCC cell growth in a cell viability assay.

LB831-BLC = format: functional, cell-based, Homo sapiens; details: Homo sapiens, LB831-BLC
Description: SANGER: Inhibition of human LB831-BLC cell growth in a cell viability assay.

LB996-RCC = format: functional, cell-based, Homo sapiens; details: Homo sapiens, LB996-RCC
Description: SANGER: Inhibition of human LB996-RCC cell growth in a cell viability assay.

MEG-01 = format: functional, cell-based, Homo sapiens; details: Homo sapiens, MEG-01
Description: SANGER: Inhibition of human MEG-01 cell growth in a cell viability assay.

MHH-PREB-1 = format: functional, cell-based, Homo sapiens; details: Homo sapiens, MHH-PREB-1
Description: SANGER: Inhibition of human MHH-PREB-1 cell growth in a cell viability assay.

MOLT-4 = format: functional, cell-based, Homo sapiens; details: Homo sapiens, MOLT-4
Description: SANGER: Inhibition of human MOLT-4 cell growth in a cell viability assay.

MSTO-211H = format: functional, cell-based, Homo sapiens; details: Homo sapiens, MSTO-211H
Description: SANGER: Inhibition of human MSTO-211H cell growth in a cell viability assay.

MV4-11 = format: functional, cell-based, Homo sapiens, MV-4-11; details: Homo sapiens, MV4-11
Description: SANGER: Inhibition of human MV-4-11 cell growth in a cell viability assay.

MZ7-mel = format: functional, cell-based, Homo sapiens; details: Homo sapiens, MZ7-mel
Description: SANGER: Inhibition of human MZ7-mel cell growth in a cell viability assay.

NCI-H1155 = format: functional, cell-based, Homo sapiens; details: Homo sapiens, NCI-H1155
Description: SANGER: Inhibition of human NCI-H1155 cell growth in a cell viability assay.

NCI-H1304 = format: functional, cell-based, Homo sapiens; details: Homo sapiens, NCI-H1304
Description: SANGER: Inhibition of human NCI-H1304 cell growth in a cell viability assay.

NCI-H1395 = format: functional, cell-based, Homo sapiens; details: Homo sapiens, NCI-H1395
Description: SANGER: Inhibition of human NCI-H1395 cell growth in a cell viability assay.

SNU-5 = format: functional, cell-based, Homo sapiens; details: Homo sapiens, SNU-5
Description: SANGER: Inhibition of human NCI-SNU-5 cell growth in a cell viability assay.

NKM-1 = format: functional, cell-based, Homo sapiens; details: Homo sapiens, NKM-1
Description: SANGER: Inhibition of human NKM-1 cell growth in a cell viability assay.

NMC-G1 = format: functional, cell-based, Homo sapiens; details: Homo sapiens, NMC-G1
Description: SANGER: Inhibition of human NMC-G1 cell growth in a cell viability assay.

NOS-1 = format: functional, cell-based, Homo sapiens; details: Homo sapiens, NOS-1
Description: SANGER: Inhibition of human NOS-1 cell growth in a cell viability assay.

NTERA-2-cl-D1 = format: functional, cell-based, Homo sapiens; details: Homo sapiens, NTERA-2-cl-D1
Description: SANGER: Inhibition of human NTERA-S-cl-D1 cell growth in a cell viability assay.

OCI-AML2 = format: functional, cell-based, Homo sapiens; details: Homo sapiens, OCI-AML2
Description: SANGER: Inhibition of human OCI-AML2 cell growth in a cell viability assay.

RS4-11 = format: functional, cell-based, Homo sapiens; details: Homo sapiens, RS4-11
Description: SANGER: Inhibition of human RS4-11 cell growth in a cell viability assay.

SH-4 = format: functional, cell-based, Homo sapiens; details: Homo sapiens, SH-4
Description: SANGER: Inhibition of human SH-4 cell growth in a cell viability assay.

SK-N-DZ = format: functional, cell-based, Homo sapiens; details: Homo sapiens, SK-N-DZ
Description: SANGER: Inhibition of human SK-N-DZ cell growth in a cell viability assay.

SK-NEP-1 = format: functional, cell-based, Homo sapiens; details: Homo sapiens, SK-NEP-1
Description: SANGER: Inhibition of human SK-NEP-1 cell growth in a cell viability assay.

SW 954 = format: functional, cell-based, Homo sapiens; details: Homo sapiens, SW 954
Description: SANGER: Inhibition of human SW954 cell growth in a cell viability assay.

SW 962 = format: functional, cell-based, Homo sapiens; details: Homo sapiens, SW 962
Description: SANGER: Inhibition of human SW962 cell growth in a cell viability assay.

TE-1 = format: functional, cell-based, Homo sapiens; details: Homo sapiens, TE-1
Description: SANGER: Inhibition of human TE-1 cell growth in a cell viability assay.

697 = format: functional, cell-based, Homo sapiens; details: Homo sapiens
Description: SANGER: Inhibition of human 697 cell growth in a cell viability assay.

ACN = format: functional, cell-based, Homo sapiens; details: Homo sapiens, ACN
Description: SANGER: Inhibition of human ACN cell growth in a cell viability assay.

ALL-PO = format: functional, cell-based, Homo sapiens; details: Homo sapiens, ALL-PO
Description: SANGER: Inhibition of human ALL-PO cell growth in a cell viability assay.

BT-474 = format: functional, cell-based, Homo sapiens; details: Homo sapiens, BT-474
Description: SANGER: Inhibition of human BT-474 cell growth in a cell viability assay.

TE-6 = format: functional, cell-based, Homo sapiens; details: Homo sapiens, TE-6
Description: SANGER: Inhibition of human TE-6 cell growth in a cell viability assay.

TE-8 = format: functional, cell-based, Homo sapiens; details: Homo sapiens, TE-8
Description: SANGER: Inhibition of human TE-8 cell growth in a cell viability assay.

TGBC24TKB = format: functional, cell-based, Homo sapiens; details: Homo sapiens, TGBC24TKB
Description: SANGER: Inhibition of human TGBC24TKB cell growth in a cell viability assay.

UACC-257 = format: functional, cell-based, Homo sapiens; details: Homo sapiens, UACC-257
Description: SANGER: Inhibition of human UACC-257 cell growth in a cell viability assay.

VA-ES-BJ = format: functional, cell-based, Homo sapiens; details: Homo sapiens, VA-ES-BJ
Description: SANGER: Inhibition of human VA-ES-BJ cell growth in a cell viability assay.

no-11 = format: functional, cell-based, Homo sapiens; details: Homo sapiens
Description: SANGER: Inhibition of human no-11 cell growth in a cell viability assay.

CAS-1 = format: functional, cell-based, Homo sapiens; details: Homo sapiens, CAS-1
Description: SANGER: Inhibition of human CAS-1 cell growth in a cell viability assay.

COLO-684 = format: functional, cell-based, Homo sapiens; details: Homo sapiens, COLO-684
Description: SANGER: Inhibition of human COLO-684 cell growth in a cell viability assay.

## N[C@@H](CSC(c1ccccc1)(c1ccccc1)c1ccccc1)C(=O)O [S-TRITYL-L-CYSTEINE]
CP66-MEL
  IC50: 3440 nM
D-263MG
  IC50: > 5120 nM
DU-4475
  IC50: 1510 nM
EM-2
  IC50: > 5120 nM
GI-ME-N
  IC50: 2280 nM
HDLM-2
  IC50: 1500 nM
HuTu80
  IC50: 546 nM
JVM-2
  IC50: > 5120 nM
KARPAS-299
  IC50: 4180 nM
KS-1
  IC50: 842 nM
LB2241-RCC
  IC50: > 5120 nM
LB831-BLC
  IC50: > 5120 nM
LB996-RCC
  IC50: 2900 nM
MEG-01
  IC50: 1800 nM
MHH-PREB-1
  IC50: > 5120 nM
MOLT-4
  IC50: 4290 nM
MSTO-211H
  IC50: > 5120 nM
MV4-11
  IC50: 381 nM
MZ7-mel
  IC50: 3180 nM
NCI-H1155
  IC50: 3800 nM
NCI-H1304
  IC50: > 5120 nM
NCI-H1395
  IC50: > 5120 nM
SNU-5
  IC50: > 5120 nM
NKM-1
  IC50: > 5120 nM
NMC-G1
  IC50: 3400 nM
NOS-1
  IC50: 970 nM
NTERA-2-cl-D1
  IC50: > 5120 nM
OCI-AML2
  IC50: 4220 nM
RS4-11
  IC50: 1300 nM
SH-4
  IC50: 2310 nM
SK-N-DZ
  IC50: 3140 nM
SK-NEP-1
  IC50: 1860 nM
SW 954
  IC50: 1880 nM
SW 962
  IC50: 1140 nM
TE-1
  IC50: 3600 nM
697
  IC50: 328 nM
ACN
  IC50: 1460 nM
ALL-PO
  IC50: 2250 nM
BT-474
  IC50: > 5120 nM
TE-6
  IC50: 3900 nM
TE-8
  IC50: 722 nM
TGBC24TKB
  IC50: 2220 nM
UACC-257
  IC50: > 5120 nM
VA-ES-BJ
  IC50: 804 nM
no-11
  IC50: 4930 nM
CAS-1
  IC50: > 5120 nM
COLO-684
  IC50: 2080 nM

## COc1cc(-c2nn([C@H]3CC[C@H](N4CCN(C(C)=O)CC4)CC3)c3ncnc(N)c23)ccc1NC(=O)c1cc2ccccc2n1C
CP66-MEL
  IC50: > 5120 nM
D-263MG
  IC50: > 5120 nM
DU-4475
  IC50: > 5120 nM
EM-2
  IC50: 337 nM
GI-ME-N
  IC50: 2290 nM
HDLM-2
  IC50: > 5120 nM
HuTu80
  IC50: 1500 nM
JVM-2
  IC50: > 5120 nM
KARPAS-299
  IC50: > 5120 nM
KS-1
  IC50: 1030 nM
LB2241-RCC
  IC50: > 5120 nM
LB831-BLC
  IC50: 593 nM
LB996-RCC
  IC50: 74.6 nM
MEG-01
  IC50: 169 nM
MHH-PREB-1
  IC50: 4850 nM
MOLT-4
  IC50: > 5120 nM
MSTO-211H
  IC50: > 5120 nM
MV4-11
  IC50: > 5120 nM
MZ7-mel
  IC50: > 5120 nM
NCI-H1155
  IC50: > 5120 nM
NCI-H1304
  IC50: > 5120 nM
NCI-H1395
  IC50: > 5120 nM
SNU-5
  IC50: > 5120 nM
NKM-1
  IC50: > 5120 nM
NMC-G1
  IC50: 573 nM
NOS-1
  IC50: 196 nM
NTERA-2-cl-D1
  IC50: > 5120 nM
OCI-AML2
  IC50: 5100 nM
RS4-11
  IC50: > 5120 nM
SH-4
  IC50: 913 nM
SK-N-DZ
  IC50: > 5120 nM
SK-NEP-1
  IC50: > 5120 nM
SW 954
  IC50: 696 nM
SW 962
  IC50: > 5120 nM
TE-1
  IC50: 2050 nM
697
  IC50: 1730 nM
ACN
  IC50: > 5120 nM
ALL-PO
  IC50: > 5120 nM
BT-474
  IC50: > 5120 nM
TE-6
  IC50: > 5120 nM
TE-8
  IC50: 242 nM
TGBC24TKB
  IC50: 808 nM
UACC-257
  IC50: > 5120 nM
VA-ES-BJ
  IC50: > 5120 nM
no-11
  IC50: > 5120 nM
CAS-1
  IC50: > 5120 nM
COLO-684
  IC50: > 5120 nM

## COc1cc2ncn(-c3cc(OCc4ccccc4C(F)(F)F)c(C(N)=O)s3)c2cc1OC [GW843682X]
CP66-MEL
  IC50: 162 nM
D-263MG
  IC50: > 256 nM
DU-4475
  IC50: 80 nM
EM-2
  IC50: 111 nM
GI-ME-N
  IC50: 88.3 nM
HDLM-2
  IC50: 69.5 nM
HuTu80
  IC50: 22.3 nM
JVM-2
  IC50: > 256 nM
KARPAS-299
  IC50: 94.3 nM
KS-1
  IC50: 26.6 nM
LB2241-RCC
  IC50: > 256 nM
LB831-BLC
  IC50: 200 nM
LB996-RCC
  IC50: 104 nM
MEG-01
  IC50: 41.9 nM
MHH-PREB-1
  IC50: 20.8 nM
MOLT-4
  IC50: 26.9 nM
MSTO-211H
  IC50: > 256 nM
MV4-11
  IC50: 25.9 nM
MZ7-mel
  IC50: 83.9 nM
NCI-H1155
  IC50: 86.8 nM
NCI-H1304
  IC50: 105 nM
NCI-H1395
  IC50: > 256 nM
SNU-5
  IC50: 52 nM
NKM-1
  IC50: 138 nM
NMC-G1
  IC50: 206 nM
NOS-1
  IC50: 16.6 nM
NTERA-2-cl-D1
  IC50: 17.4 nM
OCI-AML2
  IC50: 49.9 nM
RS4-11
  IC50: 12.8 nM
SH-4
  IC50: 123 nM
SK-N-DZ
  IC50: 37.4 nM
SK-NEP-1
  IC50: 16.5 nM
SW 954
  IC50: 18.1 nM
SW 962
  IC50: 42.2 nM
TE-1
  IC50: 14.3 nM
697
  IC50: 9.86 nM
ACN
  IC50: 33.3 nM
ALL-PO
  IC50: 8.76 nM
BT-474
  IC50: > 256 nM
TE-6
  IC50: 17.9 nM
TE-8
  IC50: 5.89 nM
TGBC24TKB
  IC50: 45 nM
UACC-257
  IC50: 130 nM
VA-ES-BJ
  IC50: 22.7 nM
no-11
  IC50: 178 nM
CAS-1
  IC50: > 256 nM
COLO-684
  IC50: 95.4 nM
